Measured values published in the NIST ThermoML archive (doi:10.1021/je050462y).
± gives the expanded uncertainty stated by the source.

Experiments:
[1] = 101.33 kPa, Liquid
[2] = wn = mass fraction of the nth substance listed; details: 101 kPa, Liquid; for viscosity: Capillary tube (Ostwald / Ubbelohde) method, w1 = 0.5; for mass density: w1 = 0.3

Structure (SMILES)	mass density ([1]; 313.15 K)	mass density ([1]; 323.15 K)	mass density ([1]; 333.15 K)	viscosity ([2]; 303.15 K)	viscosity ([2]; 313.15 K)	mass density ([2]; 313.15 K)	viscosity ([2]; 323.15 K)	mass density ([2]; 323.15 K)	viscosity ([2]; 333.15 K)	mass density ([2]; 333.15 K)
CC(C)(N)CO [2-amino-2-methylpropan-1-ol]	917.2 ± 0.6 kg/m3	909.2 ± 0.6 kg/m3	900.7 ± 0.6 kg/m3	–	–	–	–	–	–	–
CN(CCO)CCO [N-methyldiethanolamine]	1025 ± 0.6 kg/m3	1017.4 ± 0.6 kg/m3	1009.6 ± 0.6 kg/m3	–	–	–	–	–	–	–
CN(CCO)CCO [N-methyldiethanolamine] + O	–	–	–	7.39 ± 0.07 mPa·s	5.08 ± 0.05 mPa·s	1017.1 ± 0.6 kg/m3	3.62 ± 0.03 mPa·s	1011.5 ± 0.6 kg/m3	2.72 ± 0.03 mPa·s	1004.1 ± 0.6 kg/m3
OCCNCCO [diethanolamine]	1084.7 ± 0.3 kg/m3	1077.4 ± 0.3 kg/m3	1070.3 ± 0.3 kg/m3	–	–	–	–	–	–	–
OCCNCCO [diethanolamine] + O	–	–	–	–	–	1026 ± 0.5 kg/m3	–	1021.3 ± 0.5 kg/m3	–	1014.4 ± 0.4 kg/m3
